Our source for the Ki and IC50 values is patent US20190085024A1, “Alpha-Ketoamide Inhibitors Of Cysteine Proteases” (Phelix Therapeutics, priority 2017, published 2019).

Structures are written as SMILES.

The target in one test is Cathepsin B (Homo sapiens, UniProt P07858). As to the kind of experiment: Cathepsin B enzyme assay. The settings on record: Cat B (μM), Ki by Morrison equation; pH 6.0, substrate Z-Phe-Arg-Amc.
The subject of a further test is SMA. As to the kind of experiment: Fibrosis-SMA Elisa. It is filed as cell-based.
Another test concerns the target Cathepsin L (Homo sapiens, UniProt P07711). Description: Cathepsin L enzyme assay. It is filed as biochemical. The settings on record: Ki by Morrison equation; pH 5.5, substrate Z-Phe-Arg-Amc; read-out: Cat L. From the text:
Two wells contained DMSO only for controls.
Velocity was converted to μM/sec.

A further test deals with Calpain. Description: Calpain enzyme assay. It is filed as biochemical. Conditions: Ki by Morrison equation; pH 7.5, 5 mM CaCl2.
Another test has as its system Collagen. As to the kind of experiment: Fibrosis-Sirius Red Collagen Assay. It is filed as cell-based.
The subject of another test is MERS WT. Description: microbe, parasite or virus in culture. The settings on record: Middle East respiratory syndrome-related coronavirus, read-out: MERS WT (μM). It is filed as cell-based.
For another test, the target named is Cat S (Homo sapiens, UniProt P25774). As to the kind of experiment: Cat S inhibition. It is filed as biochemical.
Cat S, sequence (P25774 115-331): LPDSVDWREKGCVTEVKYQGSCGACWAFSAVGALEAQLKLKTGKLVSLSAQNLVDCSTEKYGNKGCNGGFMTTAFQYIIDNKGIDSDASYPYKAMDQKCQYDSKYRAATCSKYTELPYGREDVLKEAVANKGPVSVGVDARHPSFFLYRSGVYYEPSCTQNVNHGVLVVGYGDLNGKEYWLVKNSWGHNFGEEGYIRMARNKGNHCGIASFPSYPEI
For test [1], the system named is MARV WT (Marburg Wild Type). As to the kind of experiment: organism not typed. It is filed as cell-based. The settings on record: read-out: MARV WT (μM) (Marburg Wild Type).
In test [2] the test system is EBOV WT (Ebola Wild Type). As to the kind of experiment: microbe, parasite or virus in culture. It is filed as cell-based. Conditions: Zaire ebolavirus, read-out: EBOV WT (μM) (Ebola Wild Type).
A further test concerns the target T1, Cat K (Homo sapiens, UniProt P43235).
T1 sequence (P43235 115-329): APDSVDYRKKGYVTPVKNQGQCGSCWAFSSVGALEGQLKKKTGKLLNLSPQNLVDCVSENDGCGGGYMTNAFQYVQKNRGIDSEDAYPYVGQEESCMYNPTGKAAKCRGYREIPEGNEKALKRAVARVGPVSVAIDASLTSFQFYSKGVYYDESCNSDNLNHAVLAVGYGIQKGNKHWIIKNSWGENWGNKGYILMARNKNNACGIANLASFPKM
Description: Cat K inhibition. It is filed as biochemical.

Cathepsin L, sequence (P07711 114-333, species assumed): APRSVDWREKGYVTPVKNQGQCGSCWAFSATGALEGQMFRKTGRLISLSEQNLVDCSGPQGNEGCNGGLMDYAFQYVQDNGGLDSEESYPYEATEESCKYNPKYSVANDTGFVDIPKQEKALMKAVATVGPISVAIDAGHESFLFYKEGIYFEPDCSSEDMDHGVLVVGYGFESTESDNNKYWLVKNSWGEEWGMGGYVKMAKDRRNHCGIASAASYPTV

Turning to `CCC(C)C(NC(=O)C(CC(C)C)NC(=O)CN1CCOCC1)C(=O)C(=O)NCC(=O)NC(Cc1ccc2ccccc2c1)C(N)=O` (stereo not shown) [PHELIX314, N-(2-((1-amino-3-(naphthalen-2-yl)-1-oxopropan-2-yl)amino)-2-oxoethyl)-4-methyl-3-(4-methyl-2-(2-morpholinoacetamido)pentanamido)-2-oxohexanamide], the Ki on Cathepsin B came out at 0.387 µM; on Cathepsin L, 3.06 nM; at Calpain, 2.44 nM. This compound also showed an IC50 with SMA of 1200 nM.
Take `CCC(C)C(NC(=O)C(CC(C)C)NC(=O)OCc1ccccc1)C(=O)C(=O)NC(Cc1ccc2ccccc2c1)C(N)=O` (stereo not shown) [PHELIX309, benzyl (1-((1-((1-amino-3-(naphthalen-2-yl)-1-oxopropan-2-yl)amino)-4-methyl-1,2-dioxohexan-3-yl)amino)-4-methyl-1-oxopentan-2-yl)carbamate]: the IC50 in the test on Collagen was found to be 2700 nM; in the test on SMA, 2000 nM. Further, the Ki on Cathepsin B was > 10 µM; at Cathepsin L, 9.76 nM; on Calpain it was 1.34 nM.
For `CC[C@H](C)[C@H](NC(=O)C(=O)C(Cc1ccccc1)NC(=O)C(Cc1ccccc1)NC(=O)Cc1ccccc1)C(=O)N1CCCC1C(N)=O` (stereo partly shown) [PHELIX204, 1-((2-oxo-4-phenyl-3-(3-phenyl-2-(2-phenylacetamido)propanamido)butanoyl)isoleucyl)pyrrolidine-2-carboxamide], the IC50 with MERS WT amounted to 1.8 µM; in test [1], 0.42 µM; in test [2] it was 0.13 µM. Besides, the Ki at Cathepsin B stood at 0.277 µM; on Cat S, 0.44 nM; on Cat K, 9.3 nM; on Cathepsin L it was 0.01 nM; on Calpain, 204 nM.
Regarding `CCC(C)C(NC(=O)C(CC(C)C)NC(=O)OCc1ccccc1)C(=O)C(=O)N1CC(C(=O)NC(Cc2ccc3ccccc3c2)C(N)=O)C1` (stereo not shown) [PHELIX297, benzyl (1-((1-(3-((1-amino-3-(naphthalen-2-yl)-1-oxopropan-2-yl)carbamoyl)azetidin-1-yl)-4-methyl-1,2-dioxohexan-3-yl)amino)-4-methyl-1-oxopentan-2-yl)carbamate], the IC50 in the test with Collagen amounted to 3800 nM; with SMA, 3400 nM. Further, the results for the Ki on Cathepsin B, on Cathepsin L and on Calpain were 0.235 µM, 42.4 nM and 39.9 nM, respectively.
